Data set [1] has as its system mice with hyperuricemia induced by fructose and yeast diet. As to the kind of experiment: Model of hyperuricemia induced by fructose and yeast diet, serum uric acid. The format is in vivo. From the text:
1. Experimental animal: […] At the Experimental Animal Center of Qingdao University, all mice were placed in pathogen free facilities, maintained at appropriate temperature and relative humidity, followed by a 12-hour light and dark cycle, they freely ate and drank and clean bedding was replaced daily. 3. Method of modeling: 36 Balb/c male mice were divided into 6 groups, with 6 mice in each group. They were: […] Dissolving allopurinol and Antarctic red pigment in double distilled water and mixing well. […] Weights of each group of mice from day 0 onwards were recorded. 5. Uric acid testing: At Sam on days 14, 21, 28, and 35, mice were fasted for 12 hours and blood samples from the posterior orbital venous plexus of the mice were collected for uric acid testing. After the blood collection was completed, the blood was left at room temperature for one hour and centrifuged at a speed of 3000 rpm for 5 minutes to obtain a light-yellow upper serum.

For a further data set, the system named is mice with hyperuricemia. Put plainly: Model of hyperuricemia induced by high purine (yeast extract plus oteracil potassium). The format is in vivo. Particulars: allopurinol treatment group 20 mg/kg gavage, 7 days, 5 mice per group. From the text:
1. Experimental animal: Balb/c male mice, 6-8 weeks old, with weigh of 16-18 g were purchased from Sperford (Beijing) Biotechnology Co., Ltd. At the Experimental Animal Center of Qingdao University, all mice were placed in pathogen free facilities, maintained at appropriate temperature and relative humidity, followed by a 12-hour light and dark cycle, they freely ate and drank, and clean bedding was replaced daily.
3. […] From Day 5 to Day 7, except for the blank control group, the other four groups were given 0.1 ml (6 mg/animal) of oteracil potassium by intraperitoneal injection.

The subject of data set [2] is mouse bone marrow red cells. To be noted: positive control 40 mg/kg BW; P<0.01.
Experimental: 3.3 Mammalian red blood cell micronucleus test: 50 healthy, mature mice with weight of 25-30 g were selected, with half male and half female. The mice were randomly divided into 5 groups, 10 mice in each group, and half male and half female in each group. The experiment was conducted with three dose groups of 1.25, 2.5, and 5.0 g/kgBW Samples of 2.5, 5.0, and 10.0 g were weighed and prepared into 40 mL sample solutions using distilled water as the solvent. […] Mice were given test substance by oral gavage at a volume of 20 mL/kgBW, gavaged twice with an interval of 24 hours. Six hours after the second gavage, the animals were euthanized due to cervical dislocation. Sternal bone marrow was taken and made into bone marrow slices, fixed with methanol, and stained with Giemsa.
2000 polychromatic erythrocytes in each animal were observed and a frequency of micronucleus polychromatic erythrocytes (namely, micronucleus frequency) was counted, expressed in thousandths.
The mark [3] stands for this setting: after 14 days, Allopurinol group 20 mg/kg.

`Oc1ncnc2[nH]ncc12` [allopurinol]: the uric acid level in data set [1] (21st day, Allopurinol group 20 mg/kg) was 247.2 ± 48.98 µmol/L; in data set [1] (28th day, Allopurinol group 20 mg/kg), 264.9 ± 54.87 µmol/L; in data set [1] (35th day, Allopurinol group 20 mg/kg), 215.8 ± 37.132 µmol/L; in data set [1] (after 14 days, Allopurinol group 20 mg/kg gavage once a day), 191.5 ± 21.95 µmol/L. In addition, the “increase of uric acid level compared with the control group” value in data set [1] (setting [3]) was determined as 24.67%. In addition, the “uric acid level lower than in the High uric acid model group” value in data set [1] (setting [3]) is recorded as 30.39%. In addition, the deaths result in the data set with mice with hyperuricemia was “no deaths”.
`O=P1(N(CCCl)CCCl)NCCCO1` (centres unmarked) [cyclophosphamide]: in data set [2], the “micronucleus frequency compared with negative control group” value is “significantly higher”.

These data come from patent US20240408158A1 (LINYI UNIVERSITY, priority 2023, published 2024).
